Source: patent publication US20130287688A1, “NOVEL COMPOSITIONS AND USES OF ANTI-HYPERTENSION AGENTS FOR CANCER THERAPY” (XTUIT PHARMACEUTICALS, INC., priority 2010, published 2013)

What was measured:
[1] = tested on: FVB MMTV PyVT spontaneous mammary carcinoma; test: Collagen I immunostaining of tumor sections; format: in vivo, mice; conditions: 20 mg/kg/day, two weeks (FIG. 5B)
Protocol: Human soft tissue sarcoma (HSTS26T) and human melanoma (Mu89) tumors were grown subcutaneously in the legs and dorsal skin fold chamber of severe combined immunodeficient (SCID) mice (Leunig M, et al. (1992) Cancer Res 52:6553-6560). Human pancreatic adenocarcinoma cells (L3.6PL) were grown orthotopically in the pancreas of SCID mice. L3.6PL tumors were induced with a sub-capsular injection of one million cells in the tail of the pancreas. Tumor sizes were monitored in spontaneous FVB/N-Tg (MMTV-PyVT) 634MU1/J mice and tumors selected for treatment when they reached a size of 4 to 6 mm in diameter (Guy C T et al. (1992) Mol Cell Biol 12:954-961).
Cozaar (losartan potassium) tablets were ground using a mortar and pestle. The powder was then dissolved in water to obtain a concentration of 2.5 mg/ml. […]
Frozen sections were cut into 10 μm sections for immunohistochemistry and imaging. Collagen I was detected using the LF-67 antibody (1:100 dilution) with a previously described protocol (Znati C A, et al. (2003) Clin Cancer Res 9:5508-5513). TSP-1 was detected with a goat anti-human antibody (1:50 dilution), which cross-reacts with mice (sc-12312, Santa Cruz Biotechnology Inc., Santa Cruz, Calif.). […] The collagen and TSP-1 content was determined by measuring the number of pixels above a threshold value that was set based on the average intensity value of pixels from all slides under analysis. […]

HSTS26T tumors = test: Necrosis 21 days after HSV injection; format: in vivo, mice; conditions: losartan prior to HSV injection
Description: (§1) Hematoxylin staining of intact tumor areas, necrosis, and HSV immunostaining is shown. Necrotic regions are indicated by black arrows. Even though there was no detectable difference in necrotic area between HSTS26T and MU89, necrosis is confined to specific regions in MU89 while there is necrotic tissue (bounded by HSV immunostaining) throughout HSTS26T tumors. Scale bar=2 mm.
(§2) To determine the relationship between virus infection, necrosis and collagen structure 21 days after the HSV injection, consecutive paraffin sections were stained with either a polyclonal HSV-1 antibody (DAKO, Glostrup Denmark) or a collagen I antibody (LF-67). For collagen I staining in paraffin sections, slides were treated with 3% hydrogen peroxide prior to antigen retrieval with Target Retrieval Solution, pH 9 (DAKO, Carpinteria, Calif.). The slides were then treated with 0.05% trypsin before the primary collagen I antibody was applied at a dilution of 1:500. Sections stained with collagen I or HSV were imaged with a light microscope.

Mu89 tumors = test: Necrosis 21 days after HSV injection; format: in vivo, mice; conditions: losartan prior to HSV injection
Description: as §1, §2

E0771 breast tumors = test: Tumor matrix level histology (collagen I); design: species or system SCID mouse; conditions: mouse, in vivo
Protocol: Collagen levels were used as a metric of matrix production as described in Diop-Frimpong et al., Proc Nall Acad Sci USA. […] Next, solid stress in these tumors was measured using recently established technique described in Stylianopoulos T, et al., Growth-induced mechanical stress in murine and human tumors: causes, consequences and remedies. under review.
Vessel perfusion, matrix level, and hypoxia histology: For breast tumors, mice bearing orthotopic E0771 were split into treatment groups, time-matched for time after implantation and size-matched for tumor volume at this time (−100 mm^3). For pancreatic tumors, mice bearing orthotopic AK4.4 were split into treatment groups, size-matched for tumor volume (˜22 mm^3), 6 days after implantation. […] On the day of the last treatment, mice were slowly (−2 min) injected with 100 μL of 1 mg/mL biotinylated lectin (Vector Labs), administered retro-orbitally 5 min prior to tumor removal. For hypoxia studies, the mice were also injected with 60 mg/kg of 10 mg/mL pimonidazole 1 hr prior to tumor removal. […] For matrix staining, collagen I was detected using the LF-67 antibody provided by Dr. Larry Fisher (National Institute of Dental Research, Bethesda, Md.).
Histological image analysis: Eight random images (four interior, four periphery) at 20× magnification were taken from each slide using a confocal microscope (Olympus). […] For perfusion, the number of vessels counted by this program with colocalization of lectin and CD31 staining was divided by the number of vessels counted with CD31 staining. For vessel metrics, including diameter and density, the program determined the average size of all counted vessels and their length, as well as the count per area Images of collagen I stained sections were analyzed based on the area fraction of positive staining and on the average staining intensity (concentration) in each image. […] Images of hypoxia staining with pimonidazole were similarly analyzed for the area fraction of positive staining, counting the fraction of pixels above a threshold based on background intensity.

E0771 tumors = test: Mathematical analysis of perfused vessel network (multiphoton microscopy); format: in vivo, mice
4T1 breast tumors = test: Breast tumor growth and survival studies; format: in vivo, mice
Description: In FIG. 35B, the quantification of tumor growth rates, based on the time to reach double the initial volume, is shown.
In FIG. 35C, the animal survival following the initiation of treatment is shown. […] Statistical tests were corrected for multiple comparisons using the Holm-Bonferroni method.
Breast tumor growth and survival studies: Mice bearing orthotopic E0771 or 4T1 breast tumors were split into treatment groups, time-matched for time after implantation and size-matched for tumor volume at this time (110-111 mm^3 in E0771, in 4T1). […] The primary tumors were then measured every 2 days, beginning on day 0, using calipers. Tumor growth was quantified using the time for each to reach double its initial volume Animal survival was quantified based on time of death after initiation of treatment or time to reach excessive tumor burden (>1000 mm^3).

CCCCc1nc(Cl)c(CO)n1Cc1ccc(-c2ccccc2-c2nn[nH]n2)cc1 [losartan]
reduction in collagen I immunostaining [1]: 47%
necrosis in tumors (HSTS26T tumors): two-fold increase
necrosis in tumors (Mu89 tumors): two-fold increase
concentration of collagen I (staining intensity) (E0771 breast tumors): reduces
matrix production, collagen I area fraction (E0771 breast tumors): decreases
fractal dimension of vessel network (E0771 tumors; from a typical 1.89 in tumors toward 2.0 of normal capillary beds): increases
maximum distance drugs and oxygen must travel to reach tumor cells (E0771 tumors; pre- and post-treatment (days 2-5)): decreases
tumor growth rate (4T1 breast tumors; agent given alone (losartan 40 mg/kg daily or doxorubicin 2 mg/kg every three days)): no significant effect
survival (4T1 breast tumors; combination of losartan and doxorubicin): improved survival
tumor growth (4T1 breast tumors; losartan in combination with doxorubicin): significantly delayed
survival (4T1 breast tumors; monotherapy): did not shorten survival
